Assays:
[1] = test system: AD fruit flies (elav/Y; UAS-Aβ42/+; P35*H29.3); assay: Pavlovian olfactory learning test in AD fruit flies (anti-senile dementia effect); format: in vivo; details: for PI (mean value), learning and memory index: AD flies (P35*H29.3) given drug, final concentration 100 μM, 50 μl, day 2 to day 8, immediate memory tested day 9, PI=0 no memory, PI=100 all remember; for anti-senile dementia effect (in words, from Table 1): AD flies, T test against AD flies without administration: P>0.05, P<0.05 or P<0.01; for anti-senile dementia effect compared with JKF-006, JKF-027 and JKF-011: transgenic AD fruit flies, comparison with compounds of WO2012/103282
Protocol: In all tests, w^1118 (isoCJ1) was used as a control gene system, referred to as the “2U”. Progeny fruit flies with disease carrying P35 and H29.3 were obtained by integration of fruit flies carrying elav-GAL4^c155 (referred to as P35) and fruit flies carrying Aβ42 (UAS-Aβ42; referred to as H29.3). The first generation of fruit flies obtained by hybridization was used for behavioral testing. Details as follows:
All the fruit flies were reared in an environment with a temperature of 24° C., relative humidity of 40% RH. On the first day, newborn male 2U*H29.3 fruit flies and male AD fruit flies were picked out and put into glass bottles (there were about 120 fruit flies in each bottle). During administration period, these fruit flies were placed in an environment with a temperature of 28° C., relative humidity of 42% RH. From the second day to the eighth day, the fruit flies were transferred into new glass bottles 4 hours later after administration. All the fruit flies were placed in an environment with a temperature of 28° C., relative humidity of 42% RH until 1 hour before Pavlovian olfactory learning test.
On the first day of eclosion dispensation of drugs was conducted, the second day administration was carried out. The respective initial amount of compounds JK-01A, JK-03A, JK-05A, JK-06A and JK-07A was 10 mg, and the final concentration was 100 μM. Each group had two glass bottles of flies which were administered 50 μl within seven days (from the second day to the eighth day). During administration period, since some fruit flies died naturally or for other causes, about 100 flies were remained in each bottle when Pavlovian olfactory test was conducted on the ninth day.
The fruit flies were placed on the automatic training device for training. In training, a group of about 100 flies first contacted with one kind of odor (octanol or methyl cyclohexanol) accompanied by electric shocks (an electric shock of 60 V for 3.5 s at 1.5-s intervals) for 60 s, rested at 45-s intervals, and then contacted with another kind of odor (methyl cyclohexanol or octanol) without electric shocks for 60 s. To test the “immediate memory” (also called “learning”), flies after the training were immediately sent to the T-maze choice point, and allowed to choose between two kinds of odor, the learning and memory index PI (Performance index) in every test was calculated according to the number of flies choosing each kind of odor. PI=0 represented 50:50, meaning that fruit flies could not remember the odor accompanied by electric shocks, PI=100 represented that 100% of the flies remembered the odor accompanied by electric shocks. Learning test was carried out in a darkroom with a temperature of 25° C., relative humidity of 70% RH. The fruit flies entered the darkroom to be familiar with the environment 1 hour before test.
The test data was analyzed and plotted by employing GraphPad Prism.
In the activity test, the olfactory short-term memory impairment tests of healthy flies with the same genetic background and without administration, AD flies without administration, AD flies administrated positive or negative control drugs and AD flies administrated test drugs were carried out at the same time, their learning and memory indexes were calculated, and the learning and memory index of AD flies administrated test drugs was compared with those of healthy flies with the same genetic background, AD flies, AD flies administrated positive or negative control drugs to evaluate the anti-senile dementia effect of test compounds. A relatively higher learning and memory index of AD flies administrated test drugs represented a stronger anti-senile dementia effect of test compounds. […]

[2] = test system: ICR mice; assay: Preliminary acute toxicity test; format: in vivo; details: given twice 3 hours apart, 14 days observation
Protocol: Method: in the acute toxicity test, ICR mice were used and divided into six groups for administration, with 10 mice in each group and half male and half female. […] The control group was administrated the same volume of vehicle. Observation was conducted for 14 consecutive days after administration.

## CC(/C=C/C=C(\C)C(=O)O)=C\C=C\C=C(C)\C=C\C=C(/C)C(=O)O [Crocetin, reference compound]
[1]
  PI (mean value), learning and memory index: 40
  anti-senile dementia effect (in words, from Table 1): equivalent anti-senile dementia effects

## Cc1nc(Nc2ncc(C(=O)Nc3c(C)cccc3Cl)s2)cc(N2CCN(CCO)CC2)n1 [Dasatinib, reference compound]
[1]
  PI (mean value), learning and memory index: 56

## C#Cc1cccc(Nc2ncnc3cc(OCCOC)c(OCCOC)cc23)c1 [Erlotinib, reference compound]
[1]
  PI (mean value), learning and memory index: 48
  anti-senile dementia effect (in words, from Table 1): had anti-senile dementia effects

## N#C/C(=C/c1ccc(CO)o1)C(=O)Nc1ccc(F)cc1 [JK-01A, 2-cyano-N-(4-fluorophenyl)-3-(5-hydroxymethyl-2-furyl)-2-acrylamide]
[2]; 4000 mg/kg/d p.o.
  Test result (acute toxicity): No death,
[1]
  PI (mean value), learning and memory index: 65
  anti-senile dementia effect (in words, from Table 1): significant anti-senile dementia effects
  anti-senile dementia effect compared with JKF-006, JKF-027 and JKF-011: more significant anti-senile dementia effects

## N#C/C(=C\c1ccc(CO)o1)C(=O)NCCc1c[nH]c2ccccc12 [JK-03A, 2-cyano-N-[2-(1H-indol-3-yl)ethyl]-3-(5-hydroxymethyl-2-furyl)-2-acrylamide]
[2]; 6000 mg/kg/d p.o.
  Test result (acute toxicity): No death,
[1]
  PI (mean value), learning and memory index: 56
  anti-senile dementia effect (in words, from Table 1): significant anti-senile dementia effects
  anti-senile dementia effect compared with JKF-006, JKF-027 and JKF-011: more significant anti-senile dementia effects

## N#C/C(=C\c1ccc(NCCOCCO)o1)C(=O)NCCc1c[nH]c2ccccc12 [JK-05A, 2-cyano-N-[2-(1H-3-indolyl)ethyl]-3-{5-[2-(2-hydroxyethoxy)ethylamino]-2-furyl}-2-acrylamide]
[2]; 5000 mg/kg/d p.o.
  Test result (acute toxicity): No death,
[1]
  PI (mean value), learning and memory index: 40
  anti-senile dementia effect (in words, from Table 1): equivalent anti-senile dementia effects

## COCCOCCOCc1ccc(/C=C(\C#N)C(=O)Nc2ccc(F)cc2)o1 [JK-06A, 2-cyano-N-(4-fluorophenyl)-3-[5-(2,5,8-trioxa-nonyl-1-yl)furan-2-yl]-2-acrylamide]
[2]; 6000 mg/kg/d p.o.
  Test result (acute toxicity): No death,
[1]
  PI (mean value), learning and memory index: 67
  anti-senile dementia effect (in words, from Table 1): significant anti-senile dementia effects
  anti-senile dementia effect compared with JKF-006, JKF-027 and JKF-011: more significant anti-senile dementia effects

## N#CC(=Cc1ccc(COCCOCCOCCO)o1)C(=O)NCCc1c[nH]c2ccccc12 [JK-07A, 2-cyano-N-[2-(1H-3-indolyl)ethyl]-3-[5-(1,4,7,10-tetraoxa-undecane-11-yl)furan-2-yl]-2-acrylamide]
[2]; 4000 mg/kg/d p.o.
  Test result (acute toxicity): No death,
[1]
  PI (mean value), learning and memory index: 58
  anti-senile dementia effect (in words, from Table 1): significant anti-senile dementia effects
  anti-senile dementia effect compared with JKF-006, JKF-027 and JKF-011: more significant anti-senile dementia effects

## N#C/C(=C\c1ccc(-c2cc(C(=O)O)ccc2Cl)o1)C(=O)Nc1ccc(F)cc1 [JKF-006, reference compound]
[1]
  PI (mean value), learning and memory index: 37
  anti-senile dementia effect (in words, from Table 1): equivalent anti-senile dementia effects

## N#C/C(=C\c1ccc(N2CCOCC2)o1)C(=O)NCCc1c[nH]c2ccccc12 [JKF-027, reference compound]
[1]
  PI (mean value), learning and memory index: 54
  anti-senile dementia effect (in words, from Table 1): had anti-senile dementia effects

Reference: patent publication US9834530B2, “3-furyl-2-cyano-2-acrylamide derivative, preparation method therefor, pharmaceutical composition and use thereof” (JENKEM TECHNOLOGY CO., LTD. (BEIJING), priority 2013, dated 2017)
